Experimental data reported in patent publication US11214594B2, “Antimicrobial peptide having synergistic antibacterial effect with antibiotics on multidrug resistant bacteria, and use thereof” (priority 2016, dated 2022).
In brackets after ≈: the same amount, converted by molar mass. Where a SMILES comes first, the peptide text is derived from it. [ ]: non-standard residue; d: D form.

Columns and labels:
P. aeruginosa = test: microbe, parasite or virus in culture; format: cell-based, Pseudomonas aeruginosa
Summary of the method: (§1)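 Each strain is brought to 2×10^6 CFU in nutrient-sufficient Mueller-Hinton medium and dispensed into wells. Peptide solutions, stepwise diluted 2:1 in the same medium, are then added. The minimal concentration preventing growth gives the MIC.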

MDREC 1238 = format: cell-based, Escherichia coli
Summary of the method: as §1

MRSA 3114 = format: cell-based, Staphylococcus aureus; conditions: 3114
Summary of the method: as §1

MRSA 3126 = format: cell-based, Staphylococcus aureus; conditions: 3126
Summary of the method: as §1

MDRST 8009 = format: cell-based, Salmonella typhimurium; conditions: agent alone
Summary of the method: as §1

MDRAB 12036 = format: cell-based, Acinetobacter baumannii
Summary of the method: as §1

MDRST 8007 = test: Minimal inhibitory concentration (MIC), single agent; format: cell-based, Salmonella typhimurium; conditions: agent alone
Summary of the method: as §1

S. epidermidis = test: microbe, parasite or virus in culture; format: cell-based, Staphylococcus epidermidis
Summary of the method: as §1

A. baumannii = test: MIC of antimicrobial peptide during combined treatment with antibiotic; format: cell-based, Acinetobacter baumannii
Summary of the method: (§2)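 Broth microdilution in MH medium; strains were diluted to 2×10^6 CFU per ml before plating. Peptide was serially diluted stepwise at 2:1 starting from its MIC, and MH-diluted antibiotic was then added to determine MIC. The reversed arrangement was also tested.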

MDRAB 12035 = test: as above; format: cell-based, Acinetobacter baumannii
Summary of the method: as §2

MDREC 1229 [1] = test: MIC of antibiotic during combined treatment with antimicrobial peptide; format: cell-based, Escherichia coli
Summary of the method: as §2

MDREC 1229 [2] = test: microbe, parasite or virus in culture; format: cell-based, Escherichia coli
Summary of the method: as §1

E. coli [3] = test: microbe, parasite or virus in culture; format: cell-based, Escherichia coli; conditions: 16 h
Summary of the method: as §1

S. aureus = test: microbe, parasite or virus in culture; format: cell-based, Staphylococcus aureus
Summary of the method: as §1

S. typhimurium = test: microbe, parasite or virus in culture; format: cell-based, Salmonella typhimurium
Summary of the method: as §1

E. coli [4] = test: MIC of antibiotic during combined treatment with antimicrobial peptide; format: cell-based, Escherichia coli; conditions: for Antibiotic MIC, Erythromycin / Antibiotic MIC, Linezolid / Antibiotic MIC, Vancomycin: E. coli
Summary of the method: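 First, antibiotic solution is diluted with MH medium; next, the dilution is dispensed into wells containing peptide; finally, the orientation is swapped and MIC of each mixture determined.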

[5] = erythromycin 4 μg/ml (Conc./MIC 1/8)
[6] = erythromycin 8 μg/ml (Conc./MIC 1/4)
[7] = erythromycin 16 μg/ml (Conc./MIC 1/2)
[8] = erythromycin 32 μg/ml (Conc./MIC 1)
[9] = vancomycin 512 μg/ml (Conc./MIC 1/2)
[10] = vancomycin 1024 μg/ml (Conc./MIC 1)
[11] = peptide treatment concentration 1 μg/ml
[12] = peptide treatment concentration 2 μg/ml
[13] = peptide treatment concentration 4 μg/ml
[14] = peptide treatment concentration 6 μg/ml
[15] = peptide treatment concentration 8 μg/ml
[16] = peptide treatment concentration 16 μg/ml
[17] = peptide treatment concentration 32 μg/ml
[18] = peptide treatment concentration 64 μg/ml

CC[C@H](C)[C@H](NC(=O)[C@H](CCCCN)NC(=O)[C@H](Cc1c[nH]c2ccccc12)NC(=O)[C@@H](N)CCCNC(=N)N)C(=O)N[C@@H](Cc1ccccc1)C(=O)N[C@@H](CCCCN)C(=O)N[C@@H](CCCCN)C(=O)N[C@H](C(=O)N[C@H](CCCCN)C(=O)N[C@@H](CCCCN)C(=O)N[C@@H](CC(C)C)C(=O)N[C@@H](CC(C)C)C(=O)N[C@@H](Cc1c[nH]cn1)C(=O)N[C@@H](CCCCN)C(=O)N[C@@H](Cc1ccccc1)C(=O)N[C@@H](CCCCN)C(=O)N[C@@H](CCCCN)C(=O)N[C@@H](Cc1ccccc1)C(N)=O)[C@@H](C)CC [PapMA-17, RWK IFK KIk KLL HKF KKF-NH2] (H-RWKIFKKI[dK]KLLHKFKKF-NH2; N-terminus assumed)
Minimal inhibitory concentration MIC (P. aeruginosa): 16 µg/mL (≈ 6.62 µM)
Minimal inhibitory concentration MIC (MDREC 1238): 32 µg/mL (≈ 13.2 µM)
Minimal inhibitory concentration MIC (MRSA 3114): >128 µg/mL
Minimal inhibitory concentration MIC (MRSA 3126): >128 µg/mL
Minimal inhibitory concentration MIC (MDRST 8009): 64 µg/mL (≈ 26.5 µM)
Minimal inhibitory concentration MIC (MDRAB 12036): 32 µg/mL (≈ 13.2 µM)
Minimal inhibitory concentration MIC (MDRST 8007): 64 µg/mL (≈ 26.5 µM)
Minimal inhibitory concentration MIC (S. epidermidis): >128 µg/mL
Peptide MIC during treatment with antibiotic (A. baumannii; [5]): 4 µg/mL
Peptide MIC during treatment with antibiotic (A. baumannii; [6]): 4 µg/mL
Peptide MIC during treatment with antibiotic (A. baumannii; [7]): 2 µg/mL
Peptide MIC during treatment with antibiotic (A. baumannii; [8]): 0 µg/mL
Peptide MIC during treatment with antibiotic (A. baumannii; linezolid 32 μg/ml (Conc./MIC 1/8)): 4 µg/mL
Peptide MIC during treatment with antibiotic (A. baumannii; linezolid 64 μg/ml (Conc./MIC 1/4)): 2 µg/mL
Peptide MIC during treatment with antibiotic (A. baumannii; linezolid […] (Conc./MIC 1)): 0 µg/mL
Peptide MIC during treatment with antibiotic (A. baumannii; linezolid […] (Conc./MIC 1/2)): 2 µg/mL
Peptide MIC during treatment with antibiotic (A. baumannii; [9]): 0.25 µg/mL
Peptide MIC during treatment with antibiotic (A. baumannii; [10]): 0 µg/mL
Peptide MIC during treatment with antibiotic (A. baumannii; vancomycin […] (Conc./MIC 1/4)): 0.5 µg/mL
Peptide MIC during treatment with antibiotic (A. baumannii; vancomycin […] (Conc./MIC 1/8)): 4 µg/mL
Peptide MIC during treatment with erythromycin (MDRAB 12035; [5]): 4 µg/mL
Peptide MIC during treatment with erythromycin (MDRAB 12035; [6]): 4 µg/mL
Peptide MIC during treatment with erythromycin (MDRAB 12035; [7]): 2 µg/mL
Peptide MIC during treatment with erythromycin (MDRAB 12035; [8]): 0 µg/mL
Peptide MIC during treatment with linezolid (MDRAB 12035; linezolid 64 μg/ml (Conc./MIC 1/8)): 4 µg/mL
Peptide MIC during treatment with linezolid (MDRAB 12035; linezolid 512 μg/ml (Conc./MIC 1)): 0 µg/mL
Peptide MIC during treatment with linezolid (MDRAB 12035; linezolid […] (Conc./MIC 1/2)): 1 µg/mL
Peptide MIC during treatment with linezolid (MDRAB 12035; linezolid […] (Conc./MIC 1/4)): 2 µg/mL
Peptide MIC during treatment with vancomycin (MDRAB 12035; [9]): 2 µg/mL
Peptide MIC during treatment with vancomycin (MDRAB 12035; [10]): 1 µg/mL
Peptide MIC during treatment with vancomycin (MDRAB 12035; vancomycin […] (Conc./MIC 1/4)): 4 µg/mL
Peptide MIC during treatment with vancomycin (MDRAB 12035; vancomycin […] (Conc./MIC 1/8)): 4 µg/mL
Antibiotic MIC, Erythromycin (MDREC 1229 [1]; [11]): >128 µg/mL
Antibiotic MIC, Linezolid (MDREC 1229 [1]; [11]): >128 µg/mL
Antibiotic MIC, Vancomycin (MDREC 1229 [1]; [11]): >128 µg/mL
Antibiotic MIC, Erythromycin (MDREC 1229 [1]; [12]): 32 µg/mL
Antibiotic MIC, Linezolid (MDREC 1229 [1]; [12]): >128 µg/mL
Antibiotic MIC, Vancomycin (MDREC 1229 [1]; [12]): >128 µg/mL
Antibiotic MIC, Erythromycin (MDREC 1229 [1]; [13]): 16 µg/mL
Antibiotic MIC, Linezolid (MDREC 1229 [1]; [13]): 64 µg/mL
Antibiotic MIC, Vancomycin (MDREC 1229 [1]; [13]): 64 µg/mL
Antibiotic MIC, Erythromycin (MDREC 1229 [1]; [14]): 8 µg/mL
Antibiotic MIC, Linezolid (MDREC 1229 [1]; [14]): 16 µg/mL
Antibiotic MIC, Vancomycin (MDREC 1229 [1]; [14]): 32 µg/mL
Antibiotic MIC, Erythromycin (MDREC 1229 [1]; [15]): 4 µg/mL
Antibiotic MIC, Linezolid (MDREC 1229 [1]; [15]): 16 µg/mL
Antibiotic MIC, Vancomycin (MDREC 1229 [1]; [15]): 16 µg/mL
Antibiotic MIC, Erythromycin (MDREC 1229 [1]; [16]): 0 µg/mL
Antibiotic MIC, Linezolid (MDREC 1229 [1]; [16]): 0 µg/mL
Antibiotic MIC, Vancomycin (MDREC 1229 [1]; [16]): 0 µg/mL
Antibiotic MIC, Erythromycin (MDREC 1229 [1]; [17]): 0 µg/mL
Antibiotic MIC, Linezolid (MDREC 1229 [1]; [17]): 0 µg/mL
Antibiotic MIC, Vancomycin (MDREC 1229 [1]; [17]): 0 µg/mL
Antibiotic MIC, Erythromycin (MDREC 1229 [1]; [18]): 0 µg/mL
Antibiotic MIC, Linezolid (MDREC 1229 [1]; [18]): 0 µg/mL
Antibiotic MIC, Vancomycin (MDREC 1229 [1]; [18]): 0 µg/mL
Minimal inhibitory concentration MIC (MDREC 1229 [2]): 16 µg/mL (≈ 6.62 µM)
Peptide MIC, peptide alone (MDREC 1229 [2]): 16 µg/mL
Minimal inhibitory concentration MIC (E. coli [3]): 16 µg/mL (≈ 6.62 µM)
Minimal inhibitory concentration MIC (S. aureus): >128 µg/mL
Minimal inhibitory concentration MIC (S. typhimurium): 32 µg/mL (≈ 13.2 µM)
Synergistic effect of antibacterial activity with existing antibiotics compared with PapMA-1 (E. coli [4]; E. coli and MDREC1229): higher level than the PapMA-1 peptide
Antibiotic MIC, Erythromycin (E. coli [4]; erythromycin combined with peptide at 1 μg/ml): 128 µg/mL
Antibiotic MIC, Erythromycin (E. coli [4]; erythromycin combined with peptide at 2 μg/ml): 16 µg/mL
Antibiotic MIC, Erythromycin (E. coli [4]; erythromycin combined with peptide at 4 μg/ml): 8 µg/mL
Antibiotic MIC, Erythromycin (E. coli [4]; erythromycin combined with peptide at 6 μg/ml): 2 µg/mL
Antibiotic MIC, Erythromycin (E. coli [4]; erythromycin combined with peptide at 8 μg/ml): 1 µg/mL
Antibiotic MIC, Erythromycin (E. coli [4]; erythromycin combined with peptide at 16 μg/ml): 0 µg/mL
Antibiotic MIC, Erythromycin (E. coli [4]; erythromycin combined with peptide at 32 μg/ml): 0 µg/mL
Antibiotic MIC, Erythromycin (E. coli [4]; erythromycin combined with peptide at 64 μg/ml): 0 µg/mL
Antibiotic MIC, Linezolid (E. coli [4]; linezolid combined with peptide at 1 μg/ml): >128 µg/mL
Antibiotic MIC, Linezolid (E. coli [4]; linezolid combined with peptide at 2 μg/ml): >128 µg/mL
Antibiotic MIC, Linezolid (E. coli [4]; linezolid combined with peptide at 4 μg/ml): 32 µg/mL
Antibiotic MIC, Linezolid (E. coli [4]; linezolid combined with peptide at 6 μg/ml): 16 µg/mL
Antibiotic MIC, Linezolid (E. coli [4]; linezolid combined with peptide at 8 μg/ml): 8 µg/mL
Antibiotic MIC, Linezolid (E. coli [4]; linezolid combined with peptide at 16 μg/ml): 0 µg/mL
Antibiotic MIC, Linezolid (E. coli [4]; linezolid combined with peptide at 32 μg/ml): 0 µg/mL
Antibiotic MIC, Linezolid (E. coli [4]; linezolid combined with peptide at 64 μg/ml): 0 µg/mL
Antibiotic MIC, Vancomycin (E. coli [4]; vancomycin combined with peptide at 1 μg/ml): >128 µg/mL
Antibiotic MIC, Vancomycin (E. coli [4]; vancomycin combined with peptide at 2 μg/ml): >128 µg/mL
Antibiotic MIC, Vancomycin (E. coli [4]; vancomycin combined with peptide at 4 μg/ml): 128 µg/mL
Antibiotic MIC, Vancomycin (E. coli [4]; vancomycin combined with peptide at 6 μg/ml): 32 µg/mL
Antibiotic MIC, Vancomycin (E. coli [4]; vancomycin combined with peptide at 8 μg/ml): 16 µg/mL
Antibiotic MIC, Vancomycin (E. coli [4]; vancomycin combined with peptide at 16 μg/ml): 0 µg/mL
Antibiotic MIC, Vancomycin (E. coli [4]; vancomycin combined with peptide at 32 μg/ml): 0 µg/mL
Antibiotic MIC, Vancomycin (E. coli [4]; vancomycin combined with peptide at 64 μg/ml): 0 µg/mL
